Results: US10000783B2, “Steviol glucosyltransferases and genes encoding the same” (SUNTORY HOLDINGS LIMITED, priority 2012, dated 2018)
Each block holds one molecule with its values, some of them ahead of it.

What was measured:
UGT91D-like3 = assay: Assay for enzyme activity of UGT91D-like3 on glycosyl acceptor substrates, LC-MS analysis; format: biochemical, stevia; conditions: for product formation on reaction of the glycosyl acceptor substrate with UGT91D-like3: 2 mM UDP-glucose, 0.1 mM glycosyl acceptor substrate, potassium phosphate buffer pH 7.0, 30° C., an hour, LC-MS
Experimental: (§1) Standard conditions for the enzyme reaction were as follows: A reaction solution (2 mM UDP-glucose, 0.1 mM glycosyl acceptor substrate, 100 mM potassium phosphate buffer (pH 7.0) and 25 μl of purified UGT91D-like3 enzyme solution) was prepared in distilled water to become 50 μl, and reacted at 30° C. for an hour. LC-MS analysis was performed for 5 μl of the enzyme reaction solution under the following conditions.
Column: Waters Sunfire C18 3.5 um […]
Moving phase: A: MilliQ Water (+0.05% formic acid), B: MeCN
Gradient: linear density gradient from 15% to 55% in B density (20 mins.)
Steviolmonoside (peak B) was prepared by reacting UGT85C2 and steviol (peak A), and the steviolmonoside was reacted with UGT91D-like3. […] This peak was identified as steviolbioside based on the retention time and mass fragmentation pattern. […] It was confirmed that UGT91D-like3 had the activity of forming steviolbioside (peak C) by glucosylation of steviolmonoside (peak B).

[1] = Comparison in relative enzyme activity between recombinant UGT proteins, rubusoside as substrate; format: biochemical, stevia; conditions: for relative enzyme activity (amount of stevioside produced divided by amount of protein): glucosylation activity of UGT91D2e made 100%
Experimental: as §1
As given below, the Escherichia coli expression construct of UGT91D2e was prepared, and the enzyme activities of UGT91D2e and UGT91D-like3 were evaluated by the same manner as in EXAMPLES 3 and 4.
The enzyme activities were compared between the purified proteins of UGT91D-like3 and UGT91D2e expressed in Escherichia coli. Using rubusoside as substrate, the comparison was made under the same enzyme reaction conditions and analysis conditions as in EXAMPLE 4. A relative enzyme activity was calculated by dividing the amount of stevioside produced by the amount of the protein provided for the reaction.

[2] = reported in the prior art (Non-Patent Document 2); cited from earlier work

Molecule: O=c1ccn([C@@H]2O[C@H](COP(=O)(O)OP(=O)(O)O[C@H]3OC[C@@H](O)[C@H](O)[C@H]3O)[C@@H](O)[C@H]2O)c(=O)[nH]1 [UDP-xylose]
use as sugar donor by UGT91D-like3 (UGT91D-like3): did not use UDP-xylose as the sugar donor

B1: UGT91D2e: prior art glucosyltransferase (Patent Document 3), SEQ ID NO: 32, short by the 12 amino acids (protein, listed as Stevia rebaudiana)
chain: MATSDSIVDDRKQLHVATFPWLAFGHILPYLQLSKLIAEKGHKVSFLSTTRNIQRLSSHISPLINVVQLTLPRVQELPEDAEATTDVHPEDIPYLKKASDGLQPEVTRFLEQHSPDWIIYDYTHYWLPSIAASLGISRAHFSVTTPWAIAYMGPSADAMINGSDGRTTVEDLTTPPKWFPFPTKVCWRKHDLARLVPYKAPGISDGYRMGLVLKGSDCLLSKCYHEFGTQWLPLLETLHQVPVVPVGLLPPEIPGDEKDETWVSIKKWLDGKQKGSVVYVALGSEVLVSQTEVVELALGLELSGLPFVWAYRKPKGPAKSDSVELPDGFVERTRDRGLVWTSWAPQLRILSHESVCGFLTHCGSGSIVEGLMFGHPLIMLPIFGDQPLNARLLEDKQVGIEIPRNEEDGCLTKESVARSLRSVVVEKEGEIYKANARELSKIYNDTKVEKEYVSQFVDYLEKNARAVAIDHES
relative enzyme activity (amount of stevioside produced divided by amount of protein) [1]: 100%

B2: UGT91D-like3: novel stevia glucosyltransferase, amino acid sequence SEQ ID NO: 2 (protein, listed as Stevia rebaudiana)
chain: MYNVTYHQNSKAMATSDSIVDDRKQLHVATFPWLAFGHILPYLQLSKLIAEKGHKVSFLSTTRNIQRLSSHISPLINVVQLTLPRVQELPEDAEATTDVHPEDIPYLKKASDGLQPEVTRFLEQHSPDWIIYDYTHYWLPSIAASLGISRAHFSVTTPWAIAYMGPSADAMINGSDGRTTVEDLTTPPKWFPFPTKVCWRKHDLARLVPYKAPGISDGYRMGLVLKGSDCLLSKCYHEFGTQWLPLLETLHQVPVVPVGLLPPEIPGDEKDETWVSIKKWLDGKQKGSVVYVALGSEVLVSQTEVVELALGLELSGLPFVWAYRKPKGPAKSDSVELPDGFVERTRDRGLVWTSWAPQLRILSHESVCGFLTHCGSGSIVEGLMFGHPLIMLPIFGDQPLNARLLEDKQVGIEIPRNEEDGCLTKESVARSLRSVVVEKEGEIYKANARELSKIYNDTKVEKEYVSQFVDYLEKNARAVAIDHES
relative enzyme activity per protein amount higher than UGT91D2e [1]: 67% | relative enzyme activity (amount of stevioside produced divided by amount of protein) [1]: 167%

B3: UGT91D1: known stevia glucosyltransferase, GENBANK Accession No. AY345980 (protein, UniProt Q6VAA8 1-485, looked up)
UDP-glycosyltransferase 91D1: MYNVTYHQNSKAMATSDSIVDDRKQLHVATFPWLAFGHILPFLQLSKLIAEKGHKVSFLSTTRNIQRLSSHISPLINVVQLTLPRVQELPEDAEATTDVHPEDIQYLKKAVDGLQPEVTRFLEQHSPDWIIYDFTHYWLPSIAASLGISRAYFCVITPWTIAYLAPSSDAMINDSDGRTTVEDLTTPPKWFPFPTKVCWRKHDLARMEPYEAPGISDGYRMGMVFKGSDCLLFKCYHEFGTQWLPLLETLHQVPVVPVGLLPPEIPGDEKDETWVSIKKWLDGKQKGSVVYVALGSEALVSQTEVVELALGLELSGLPFVWAYRKPKGPAKSDSVELPDGFVERTRDRGLVWTSWAPQLRILSHESVCGFLTHCGSGSIVEGLMFGHPLIMLPIFCDQPLNARLLEDKQVGIEIPRNEEDGCLTKESVARSLRSVVVENEGEIYKANARALSKIYNDTKVEKEYVSQFVDYLEKNARAVAIDHES
activity for steviolmonoside [2]: no activity

Now from value to molecule:

product formation on reaction of the glycosyl acceptor substrate with UGT91D-like3 (UGT91D-like3): any new product was not detected
Molecule: C=C1C[C@@]23CC[C@H]4[C@@](C)(CCC[C@@]4(C)C(=O)O)[C@@H]2CC[C@]1(O[C@@H]1O[C@H](CO)[C@@H](O)[C@H](O)[C@H]1O[C@@H]1O[C@H](CO)[C@@H](O)[C@H](O)[C@H]1O)C3 [steviolbioside]

product formation on reaction of the glycosyl acceptor substrate with UGT91D-like3 (UGT91D-like3): a new product (peak C) was detected
Molecule: C=C1C[C@@]23CC[C@H]4[C@@](C)(CCC[C@@]4(C)C(=O)O)[C@@H]2CC[C@]1(O[C@@H]1O[C@H](CO)[C@@H](O)[C@H](O)[C@H]1O)C3 [steviolmonoside]

product formation on reaction of the glycosyl acceptor substrate with UGT91D-like3 (UGT91D-like3): gave a new peak E
Molecule: C=C1C[C@@]23CC[C@H]4[C@@](C)(CCC[C@@]4(C)C(=O)O[C@@H]4O[C@H](CO)[C@@H](O)[C@H](O)[C@H]4O)[C@@H]2CC[C@]1(O[C@@H]1O[C@H](CO)[C@@H](O)[C@H](O)[C@H]1O)C3 [rubusoside]

product formation on reaction of the glycosyl acceptor substrate with UGT91D-like3 (UGT91D-like3): no product was detected
Molecule: C=C1C[C@@]23CC[C@H]4[C@@](C)(CCC[C@@]4(C)C(=O)O)[C@@H]2CC[C@]1(O)C3 [steviol]
